Experimental data as given in ChEMBL document CHEMBL1201862, “PubChem BioAssay data set” (2004).
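Compound exposure: 48 hours, 5 concentrations, 96-well plates. GI50: concentration for 50% inhibition of growth.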 Active and inactive are the calls of the source. Rule as the data show it: active = GI50 up to about 1.1 µM and inactive = higher.

Experiments:
Assay in all cases: NCI-60 cell line screen, 48 h
CAKI-1 = system: CAKI-1
SK-OV-3 = system: SK-OV-3
NCI-H522 = system: NCI-H522
SNB-75 = system: SNB-75
SF-268 = system: SF-268
SN12C = system: SN12C
SF-295 = system: SF-295
UACC-257 = system: UACC-257
TK-10 = system: TK-10
OVCAR-4 = system: OVCAR-4
MCF7 = system: MCF7
NCI/ADR-RES = system: NCI/ADR-RES
M14 = system: M14
MOLT-4 = system: MOLT-4
ACHN = system: ACHN
SW-620 = system: SW-620
786-0 = system: 786-0
SK-MEL-5 = system: SK-MEL-5
IGROV-1 = system: IGROV-1
MDA-MB-231 = system: MDA-MB-231
UO-31 = system: UO-31
SK-MEL-2 = system: SK-MEL-2
NCI-H23 = system: NCI-H23
SF-539 = system: SF-539
SK-MEL-28 = system: SK-MEL-28
OVCAR-5 = system: OVCAR-5
MDA-N = system: MDA-N
MDA-MB-435 = system: MDA-MB-435
HCC 2998 = system: HCC 2998
HOP-62 = system: HOP-62
HCT-15 = system: HCT-15
OVCAR-3 = system: OVCAR-3
Hs-578T = system: Hs-578T
KM12 = system: KM12
BT-549 = system: BT-549
NCI-H460 = system: NCI-H460
A549 = system: A549
HT-29 = system: HT-29
OVCAR-8 = system: OVCAR-8
CCRF-CEM = system: CCRF-CEM
LOX IMVI = system: LOX IMVI
HCT-116 = system: HCT-116
DU-145 = system: DU-145
PC-3 = system: PC-3
HOP-92 = system: HOP-92
RXF 393 = system: RXF 393
EKVX = system: EKVX
UACC-62 = system: UACC-62
COLO 205 = system: COLO 205
U-251 = system: U-251
SNB-19 = system: SNB-19
HL-60 = system: HL-60
RPMI-8226 = system: RPMI-8226
K562 = system: K562
T47D = system: T47D
Malme-3M = system: Malme-3M
SR = system: SR
NCI-H226 = system: NCI-H226
A498 = system: A498

Measured: GI50

O=C1Nc2ccccc2/C1=N/Nc1nc(-c2ccc(Br)cc2)cs1
active: IGROV-1 0.678 µM
19.4 µM: HCT-15
inactive: CAKI-1 18.6 µM | SK-OV-3 23.7 µM | NCI-H522 25.9 µM | SNB-75 19.7 µM | SF-268 20 µM | SN12C 27.1 µM | SF-295 24.1 µM | UACC-257 22.7 µM | TK-10 28.6 µM | OVCAR-4 18.5 µM | MCF7 37.3 µM | NCI/ADR-RES 18 µM | M14 21.8 µM | MOLT-4 74.8 µM | ACHN 17.5 µM | SW-620 28.2 µM | 786-0 17.3 µM | SK-MEL-5 15.6 µM | MDA-MB-231 17.5 µM | UO-31 10.3 µM | SK-MEL-2 46.1 µM | NCI-H23 27.2 µM | SF-539 17.5 µM | SK-MEL-28 12.6 µM | OVCAR-5 23.8 µM | MDA-N 41.5 µM | MDA-MB-435 36.5 µM | HCC 2998 31.8 µM | HOP-62 14.6 µM | OVCAR-3 20.7 µM | Hs-578T 17.9 µM | KM12 30.3 µM | BT-549 20 µM | NCI-H460 21.4 µM | A549 25.2 µM | HT-29 17.7 µM | OVCAR-8 19.5 µM | CCRF-CEM 15.7 µM | LOX IMVI 17.4 µM | HCT-116 26.7 µM | DU-145 23.3 µM | PC-3 28.6 µM | HOP-92 11.4 µM | RXF 393 43.9 µM | EKVX 7.85 µM | UACC-62 20.6 µM | COLO 205 24.9 µM | U-251 14.3 µM | SNB-19 18.5 µM

CC1(C)N=C(/C(C#N)=[N+](/[O-])C(=O)c2ccccc2)C(C)(C)N1O
> 100 µM: HCT-15
inactive: CAKI-1 > 100 µM | SK-OV-3 > 100 µM | SNB-75 > 100 µM | SF-268 > 100 µM | SN12C > 100 µM | SF-295 > 100 µM | UACC-257 > 100 µM | TK-10 > 100 µM | HL-60 > 100 µM | OVCAR-4 > 100 µM | MCF7 > 100 µM | NCI/ADR-RES > 100 µM | M14 > 100 µM | MOLT-4 > 100 µM | ACHN > 100 µM | SW-620 > 100 µM | 786-0 > 100 µM | RPMI-8226 > 100 µM | SK-MEL-5 > 100 µM | IGROV-1 > 100 µM | MDA-MB-231 > 100 µM | UO-31 > 100 µM | K562 > 100 µM | T47D > 100 µM | SK-MEL-2 > 100 µM | NCI-H23 > 100 µM | SF-539 > 100 µM | SK-MEL-28 > 100 µM | OVCAR-5 > 100 µM | MDA-N > 100 µM | Malme-3M > 100 µM | MDA-MB-435 > 100 µM | HCC 2998 > 100 µM | HOP-62 > 100 µM | OVCAR-3 > 100 µM | Hs-578T > 100 µM | KM12 > 100 µM | NCI-H460 > 100 µM | A549 > 100 µM | HT-29 > 100 µM | OVCAR-8 > 100 µM | SR > 100 µM | CCRF-CEM > 100 µM | LOX IMVI > 100 µM | HCT-116 > 100 µM | DU-145 > 100 µM | PC-3 > 100 µM | HOP-92 > 100 µM | RXF 393 > 100 µM | NCI-H226 > 100 µM | EKVX > 100 µM | UACC-62 > 100 µM | COLO 205 > 100 µM | U-251 > 100 µM | SNB-19 > 100 µM

CSc1ccc2c(cc1=O)[C@@H](NC(=O)c1ccc(N)cc1)CCc1cc(O)c(O)c(O)c1-2
inactive: SK-OV-3 > 100 µM | NCI-H522 7.67 µM | SF-268 13.6 µM | A498 46.2 µM | SN12C 27.9 µM | SF-295 15.7 µM | UACC-257 18.3 µM | OVCAR-4 22 µM | NCI/ADR-RES 28.5 µM | MOLT-4 22.6 µM | ACHN 21.2 µM | 786-0 16.4 µM | RPMI-8226 22.3 µM | IGROV-1 25 µM | UO-31 26 µM | K562 9.66 µM | T47D 66.1 µM | SF-539 3.85 µM | OVCAR-5 23.4 µM | MDA-MB-435 7.85 µM | HCC 2998 14.5 µM | HOP-62 15.1 µM | BT-549 16 µM | NCI-H460 12 µM | A549 23.6 µM | OVCAR-8 22 µM | DU-145 49.1 µM | HOP-92 41.4 µM | EKVX 30.1 µM | U-251 25.4 µM | SNB-19 25.1 µM
17.9 µM: HCT-15
